Target: T1, AR protein (Homo sapiens, UniProt P10275)
T1 construct: endogenous in cells; host or cells: VCaP
T1 sequence (P10275 1-920): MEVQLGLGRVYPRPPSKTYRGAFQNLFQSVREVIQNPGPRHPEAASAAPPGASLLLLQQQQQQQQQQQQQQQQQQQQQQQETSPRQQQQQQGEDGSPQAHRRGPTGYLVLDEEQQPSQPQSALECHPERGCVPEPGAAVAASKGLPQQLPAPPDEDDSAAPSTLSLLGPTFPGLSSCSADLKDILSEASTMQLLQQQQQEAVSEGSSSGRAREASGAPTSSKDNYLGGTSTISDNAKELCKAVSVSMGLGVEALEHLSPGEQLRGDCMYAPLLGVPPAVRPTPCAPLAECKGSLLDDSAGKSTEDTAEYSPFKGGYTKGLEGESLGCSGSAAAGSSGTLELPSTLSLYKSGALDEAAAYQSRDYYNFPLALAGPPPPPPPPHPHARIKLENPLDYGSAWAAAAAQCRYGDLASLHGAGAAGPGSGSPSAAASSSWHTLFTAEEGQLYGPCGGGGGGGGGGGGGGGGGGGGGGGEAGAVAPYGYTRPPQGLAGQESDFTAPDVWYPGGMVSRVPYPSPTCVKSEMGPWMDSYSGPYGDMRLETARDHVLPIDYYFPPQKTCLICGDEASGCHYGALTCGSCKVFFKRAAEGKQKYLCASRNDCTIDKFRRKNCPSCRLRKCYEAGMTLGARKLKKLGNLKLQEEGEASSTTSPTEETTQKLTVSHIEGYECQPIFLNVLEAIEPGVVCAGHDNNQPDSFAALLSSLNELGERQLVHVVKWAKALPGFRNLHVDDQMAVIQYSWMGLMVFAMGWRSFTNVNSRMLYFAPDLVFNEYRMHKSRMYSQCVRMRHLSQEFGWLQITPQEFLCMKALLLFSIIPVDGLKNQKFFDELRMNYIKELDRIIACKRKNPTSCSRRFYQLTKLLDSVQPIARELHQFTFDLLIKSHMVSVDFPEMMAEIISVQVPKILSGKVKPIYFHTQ
Test: AR protein degradation in VCaP cells, Western blotting
Format: cell-based
Parameters: key to AR protein degradation VCap 10 nM / AR protein degradation VCap 100 nM: A: >90% degradation (24 hr treatment); B: >50% degradation but <90% (24 hr treatment); C: >10% degradation but <50% (24 hr treatment); D: No significant degradation (24 hr treatment)
Settings: 24 hr treatment; for percent AR protein degradation at 0.1 µM / AR protein degradation VCap 100 nM: 100 nM; for AR protein degradation VCap 10 nM / percent AR protein degradation at 0.01 µM: 10 nM
Description: The appropriate cell line, e.g., prostate cancer LNCaP, Vcap, or 22RV1 cell line, was treated with Compounds of the Disclosure as indicated. The treated cells were lysed with RIPA buffer. The AR level in the cell lysates was examined by western blotting and a specific AR antibody (ab194196, Abcam, Cambridge, MA 02139) with concentration of 1:20,000. GAPDH was used as a loading control.
Bands were quantified with ImageJ software. The relative numbers of each band obtained from normalization with its corresponding GAPDH level were compared with Prism 8 software. The DC50 values were produced from Prism 8, and the DC90 values were calculated with an equation=Bottom + (Top-Bottom)/(1+10^((LogEC50-X)*HillSlope) based on DC50 and Hillslope values.
The amount of AR protein degradation in VCap and MDA-MB-453 cells caused by representative Compounds of the Disclosure at the concentrations indicated is presented in Table 4, FIG. 1, and FIG. 2.

| SMILES | AR protein degradation VCap 10 nM | percent AR protein degradation at 0.1 µM [%] | percent AR protein degradation at 0.01 µM [%] | AR protein degradation VCap 100 nM |
| --- | --- | --- | --- | --- |
| N#Cc1ccc(OC2CC3(CCC(NC(=O)c4ccc(N5CCC(CN6Cc7cc8c(cc7C6)C(=O)N(C6CCC(=O)NC6=O)C8=O)CC5)cc4)CC3)C2)cc1Cl (centres unmarked) [compound 126] | D | 10 to 50 |  |  |
| N#Cc1ccc(O[C@H]2CC[C@H](NC(=O)c3ccc4c(c3)CCN(C(=O)CN3Cc5cc6c(cc5C3)C(=O)N(C3CCC(=O)NC3=O)C6=O)CC4)CC2)cc1Cl (some centres unmarked) [compound 25] |  | > 90 | > 90 |  |
| N#Cc1ccc(O[C@H]2CC[C@H](NC(=O)c3ccc(N4CC(CN5Cc6cc7c(cc6C5)C(=O)N(C5CCC(=O)NC5=O)C7=O)C4)cc3)CC2)cc1Cl (some centres unmarked) [compound 21] |  | > 90 | 50 to 90 |  |
| C[C@H]1C[C@@H](NC(=O)c2ccc(N3CCC(CN4Cc5cc6c(cc5C4)C(=O)N(C4CCC(=O)NC4=O)C6=O)CC3)cc2)CC[C@@H]1Oc1ccc(C#N)c(Cl)c1 (some centres unmarked) [compound 15] |  | > 90 | > 90 |  |
| N#Cc1ccc(N[C@H]2CC[C@H](NC(=O)c3ccc(N4CC(CN5Cc6cc7c(cc6C5)C(=O)N(C5CCC(=O)NC5=O)C7=O)C4)cc3)CC2)cc1Cl (some centres unmarked) [compound 22] |  | > 90 | 50 to 90 |  |
| CC1(C)C(Nc2ccc(C(=O)N3CCC(N4Cc5cc6c(cc5C4)C(=O)N(C4CCC(=O)NC4=O)C6=O)CC3)cc2)C(C)(C)C1Oc1ccc(C#N)c(Cl)c1 (centres unmarked) [compound 176] |  | > 90 | 10 to 50 |  |
| CN(c1ccc(C#N)c(Cl)c1)[C@H]1CC[C@H](NC(=O)c2ccc(CN3CCC(C(=O)N4Cc5cc6c(cc5C4)C(=O)N(C4CCC(=O)NC4=O)C6)CC3)cc2)CC1 (some centres unmarked) [compound 326] |  | > 90 | > 90 |  |
| CN(c1ccc(C#N)c(Cl)c1)[C@H]1CC[C@H](NC(=O)c2ccc(N3CCC(CN4Cc5cc6c(cc5C4)C(=O)N(C4CCC(=O)NC4=O)C6=O)CC3)nn2)CC1 (some centres unmarked) [compound 325] |  | > 90 | > 90 |  |
| N#Cc1ccc(OC2CCN(C(=O)Oc3ccc(C(=O)N4CCC(CN5Cc6cc7c(cc6C5)C(=O)N(C5CCC(=O)NC5=O)C7=O)CC4)cc3)CC2)cc1Cl (centres unmarked) [compound 131] | D | 10 to 50 |  |  |
| N#Cc1ccc(OC2CCN(C(=O)Nc3ccc(C(=O)N4CCC(CN5Cc6cc7c(cc6C5)C(=O)N(C5CCC(=O)NC5=O)C7=O)CC4)cc3)CC2)cc1Cl (centres unmarked) [compound 132] | D |  |  | D |
| CC1(C)[C@H](Oc2ccc(C#N)c(Cl)c2)C(C)(C)[C@H]1N1Cc2cc(C(=O)N3CCC(CN4Cc5cc6c(cc5C4)C(=O)N(C4CCC(=O)NC4=O)C6=O)CC3)ccc2C1=O (some centres unmarked) [compound 6] |  | 10 to 50 | 10 to 50 |  |
| N#Cc1ccc(N[C@H]2CC[C@H](NC(=O)c3ccc(N4CCC(N5Cc6cc7c(cc6C5)C(=O)N(C5CCC(=O)NC5=O)C7=O)CC4)cc3)CC2)cc1Cl (some centres unmarked) [compound 17] |  | > 90 | > 90 |  |
| N#Cc1ccc(O[C@H]2CC[C@H](Oc3ccc(C(=O)N4CCC(CN5Cc6cc7c(cc6C5)C(=O)N(C5CCC(=O)NC5=O)C7=O)CC4)cc3)CC2)cc1Cl (some centres unmarked) [compound 12] | D |  |  | D |
| CN(c1ccc(C#N)c(Cl)c1)C1CCC(NC(=O)c2ccc(N3CCC(N4Cc5cc6c(cc5C4)C(=O)N(C4CCC(=O)NC4=O)C6=O)CC3)cc2)CC1 (centres unmarked) [compound 19, N-((1r,4r)-4-((3-chloro-4-cyanophenyl)(methyl)amino)cyclohexyl)-4-(4-(6-(2,6-dioxopiperidin-3-yl)-5,7-dioxo-3,5,6,7-tetrahydropyrrolo [3,4-f]isoindol-2(1H)-yl)piperidin-1-yl)benzamide] |  | > 90 | > 90 |  |
| CC1(C)[C@H](Oc2ccc(C#N)c(Cl)c2)C(C)(C)[C@H]1N1Cc2cc(C(=O)N3CCC(N4Cc5cc6c(cc5C4)C(=O)N(C4CCC(=O)NC4=O)C6=O)CC3)ccc2C1=O (some centres unmarked) [compound 5] |  | 10 to 50 | 10 to 50 |  |
| C[C@@H]1CCN(C(=O)c2ccc(N3CCC(CN4Cc5cc6c(cc5C4)C(=O)N(C4CCC(=O)NC4=O)C6=O)CC3)cc2)C[C@H]1Oc1ccc(C#N)c(Cl)c1 (some centres unmarked) [compound 121] | D |  |  | D |
| CN(c1ccc(C#N)c(Cl)c1)[C@H]1CC[C@H](NC(=O)c2ccc([C@H]3CC[C@H](CN4Cc5cc6c(cc5C4)C(=O)N(C4CCC(=O)NC4=O)C6=O)CC3)cn2)CC1 (some centres unmarked) [compound 313] |  | > 90 | > 90 |  |
| N#Cc1ccc(OC2CC3(CC(NC(=O)c4ccc(N5CCC(CN6Cc7cc8c(cc7C6)C(=O)N(C6CCC(=O)NC6=O)C8=O)CC5)cc4)C3)C2)cc1Cl (centres unmarked) [compound 124] | D | 50 to 90 |  |  |
| C[C@H]1CCN(c2ccc(C(=O)N3CCC(CN4Cc5cc6c(cc5C4)C(=O)N(C4CCC(=O)NC4=O)C6=O)CC3)cc2)CCN1c1ccc(C#N)c(Cl)c1 (some centres unmarked) [compound 120] |  | 50 to 90 | 50 to 90 |  |
| CN(c1ccc(C#N)c(Cl)c1)[C@H]1CC[C@H](NC(=O)c2ccc(CN3CCC(N4Cc5cc6c(cc5C4)C(=O)N(C4CCC(=O)NC4=O)C6=O)CC3)cc2)CC1 (some centres unmarked) [compound 278] |  | > 90 | > 90 |  |
| N#Cc1ccc(O[C@H]2CC[C@H](NC(=O)c3ccc4c(c3)CCN(C(=O)CN3Cc5cc6c(cc5C3)C(=O)N(C3CCC(=O)NC3=O)C6=O)C4)CC2)cc1Cl (some centres unmarked) [compound 24] |  | > 90 | > 90 |  |
| N#Cc1ccc(N[C@H]2CC[C@H](NC(=O)c3ccc(N4CCC(CN5Cc6cc7c(cc6C5)C(=O)N(C5CCC(=O)NC5=O)C7=O)CC4)cc3)CC2)cc1Cl (some centres unmarked) [compound 18] |  | > 90 | 50 to 90 |  |
| CN(c1ccc(C#N)c(Cl)c1)[C@H]1CC[C@H](NC(=O)c2ccc(O[C@H]3CC[C@H](N4Cc5cc6c(cc5C4)C(=O)N(C4CCC(=O)NC4=O)C6=O)CC3)cc2)CC1 (some centres unmarked) [compound 281, N-((1r,4r)-4-((3-Chloro-4-Cyanophenyl)(Methyl)Amino)Cyclohexyl)-4-(((1r,4r)-4-(6-(2,6-Dioxopiperidin-3-Yl)-5,7-Dioxo-3,5,6,7-Tetrahydropyrrolo[3,4-F]Isoindol-2(1h)-Yl)Cyclohexyl)Oxy)Benzamide] |  | > 90 | > 90 |  |
| N#Cc1ccc(O[C@H]2CC[C@H](N3Cc4cc(C(=O)N5CCC(N6Cc7cc8c(cc7C6)C(=O)N(C6CCC(=O)NC6=O)C8=O)CC5)ccc4C3=O)CC2)cc1Cl (some centres unmarked) [compound 173] |  | > 90 | 10 to 50 |  |
| C[C@H]1C[C@H](NC(=O)c2ccc(N3CCC(N4Cc5cc6c(cc5C4)C(=O)N(C4CCC(=O)NC4=O)C6=O)CC3)cc2)CC[C@H]1Oc1ccc(C#N)c(Cl)c1 (some centres unmarked) [compound 13] |  | > 90 | > 90 |  |
| C[C@H]1C[C@@H](NC(=O)c2ccc(N3CCC(N4Cc5cc6c(cc5C4)C(=O)N(C4CCC(=O)NC4=O)C6=O)CC3)cc2)CC[C@@H]1Oc1ccc(C#N)c(Cl)c1 (some centres unmarked) [compound 16] |  | > 90 | > 90 |  |
| CN(c1ccc(C#N)c(Cl)c1)[C@H]1CC[C@H](NC(=O)c2ccc(N3CCC(CN4Cc5cc6c(cc5C4)C(=O)N(C4CCC(=O)NC4=O)C6=O)CC3)cn2)CC1 (some centres unmarked) [compound 324] |  | > 90 | > 90 |  |
| N#Cc1ccc(O[C@H]2CC[C@H](Nc3ccc(C(=O)N4CCC(CN5Cc6cc7c(cc6C5)C(=O)N(C5CCC(=O)NC5=O)C7=O)CC4)cc3)CC2)cc1Cl (some centres unmarked) [compound 9] | D | 50 to 90 |  |  |
